Experimental findings from EPA's ToxValDB 9.5 (doi:10.2903/j.efsa.2013.3269) are described below.

Converted amounts (≈) assume the structure as drawn. “And” between values parts separate entries of the source, which are not always exact repeats. Equal values may be shown once.

One series has as its system Typhlodromus pyri. Put plainly: LR50; higher = less toxic. Conditions: acute; duration: 7 days; mortality.
The subject of the next series is Aphidius rhopalosiphi. Put plainly: LR50; higher = less toxic. The conditions noted are these: acute; duration: 48 hours; mortality.
In a further series the test system is Oryctolagus sp. The conditions noted are these: developmental; development.
Another series concerns Colinus virginianus. Conditions: acute; oral; diet; mortality.
Another series relates to Oncorhynchus mykiss. Conditions: acute; duration: 96 hours; mortality.
The test system of a further series is Tagia sp. The conditions noted are these: acute; duration: 14 days; mortality.
The subject of another series is Apis mellifera. The conditions noted are these: acute, duration: 48 hours, mortality.
In a further series the test system is Anas platyrhynchos. Conditions: oral, mortality.

On to `CCc1cc(C)cc(CC)c1-c1c(OC(=O)C(C)(C)C)n2n(c1=O)CCOCC2` [Pinoxaden], for which the values for the LR50 with Typhlodromus pyri and in the series on Aphidius rhopalosiphi were 1.81 g/ha and 6.22 g/ha, respectively. Moreover, the NOAEL with Oryctolagus sp. is 30 mg/kg-day and 10 mg/kg-day; in the series with Rattus norvegicus (chronic, duration: 2 years, histopathology: nonneoplastic) it was 10 mg/kg-day; in the series on Rattus norvegicus (reproduction developmental, body weight), 250 mg/kg-day; with Rattus norvegicus (reproduction developmental, oral, gavage, no effects), 500 mg/kg-day. The LD50 in the series with Rattus norvegicus (acute, oral, mortality) was over 5000 mg/kg-day; in the series on Apis mellifera (dermal) it was over 100 µg/piece; in the series with Apis mellifera (oral, unspecified), over 200 µg/piece; in the series with Anas platyrhynchos (acute, unspecified), over 2250 mg/kg-day. Also, the LC50 with Colinus virginianus is over 1570 mg/kg-day; in the series on Oncorhynchus mykiss, 10.3 µg/mL (≈ 25.7 µM); in the series on Tagia sp., over 1000 mg/kg; with Anas platyrhynchos (short-term, feed), over 1800 mg/kg-day.
